Test results reported in PMC11181336, “Discovery of ITI-333, a Novel Orally Bioavailable Molecule Targeting Multiple Receptors for the Treatment of Pain and Other Disorders” (Journal of Medicinal Chemistry, 2024).
Like-named read-outs stand apart in the source and are kept apart here.

Columns and labels:
[1] = target: human recombinant dopamine D2 short receptor (Homo sapiens, UniProt P14416); assay: Dopamine D2 receptor binding, [3H]7-OH-DPAT displacement; conditions: for inhibition at 0.1 µM: read-out: D2 % inhibition
[2] = target: T1, human full-length recombinant serotonin 5-HT2A receptors (Homo sapiens, UniProt P28223); assay: biochemical; type: binding; conditions: for inhibition at 0.1 µM: read-out: 5-HT2A % inhibition
T1 construct: human full-length recombinant serotonin 5-HT2A receptors expressed in HEK-293E cells

[3] = target: T2, human recombinant 5-HT transporter (SERT) (Homo sapiens, UniProt P31645); assay: biochemical; type: binding; conditions: for inhibition at 0.1 µM / inhibition at 0.2 µM: read-out: SERT % inhibition
T2 construct: host or cells: CHO-S / SERT (h), cell membrane homogenates

[4] = target: human recombinant dopamine D1 receptor (Homo sapiens, UniProt P21728); assay: Dopamine D1 receptor binding, [3H]SCH 23390 displacement; conditions: for inhibition at 0.1 µM: read-out: D1 % inhibition
[5] = inhibition at 100 nM, NI = no inhibition

Chain of human recombinant dopamine D1 receptor (P21728 whole entry): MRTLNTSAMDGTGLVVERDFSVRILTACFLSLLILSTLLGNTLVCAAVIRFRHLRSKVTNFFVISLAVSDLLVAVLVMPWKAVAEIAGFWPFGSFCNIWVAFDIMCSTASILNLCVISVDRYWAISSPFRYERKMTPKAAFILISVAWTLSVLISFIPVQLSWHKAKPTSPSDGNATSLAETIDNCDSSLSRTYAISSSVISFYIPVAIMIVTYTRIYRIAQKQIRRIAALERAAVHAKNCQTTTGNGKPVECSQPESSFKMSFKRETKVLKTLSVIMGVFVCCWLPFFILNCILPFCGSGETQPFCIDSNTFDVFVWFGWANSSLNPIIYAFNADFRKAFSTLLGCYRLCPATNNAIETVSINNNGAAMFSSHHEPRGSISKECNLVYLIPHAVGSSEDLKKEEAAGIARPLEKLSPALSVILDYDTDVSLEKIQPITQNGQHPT
Chain of human recombinant dopamine D2 short receptor (P14416 1-414 isoform P14416-2): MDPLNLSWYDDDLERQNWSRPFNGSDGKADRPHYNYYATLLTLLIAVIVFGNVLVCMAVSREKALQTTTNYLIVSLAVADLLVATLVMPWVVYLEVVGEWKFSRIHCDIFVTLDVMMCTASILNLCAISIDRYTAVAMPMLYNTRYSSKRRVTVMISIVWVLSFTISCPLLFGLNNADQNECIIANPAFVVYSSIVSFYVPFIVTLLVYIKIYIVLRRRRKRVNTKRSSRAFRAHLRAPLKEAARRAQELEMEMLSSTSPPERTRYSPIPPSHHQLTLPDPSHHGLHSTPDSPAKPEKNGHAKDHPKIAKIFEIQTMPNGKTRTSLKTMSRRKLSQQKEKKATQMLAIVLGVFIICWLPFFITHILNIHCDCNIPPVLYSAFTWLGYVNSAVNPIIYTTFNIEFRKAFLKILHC
T1 sequence (P28223 whole entry): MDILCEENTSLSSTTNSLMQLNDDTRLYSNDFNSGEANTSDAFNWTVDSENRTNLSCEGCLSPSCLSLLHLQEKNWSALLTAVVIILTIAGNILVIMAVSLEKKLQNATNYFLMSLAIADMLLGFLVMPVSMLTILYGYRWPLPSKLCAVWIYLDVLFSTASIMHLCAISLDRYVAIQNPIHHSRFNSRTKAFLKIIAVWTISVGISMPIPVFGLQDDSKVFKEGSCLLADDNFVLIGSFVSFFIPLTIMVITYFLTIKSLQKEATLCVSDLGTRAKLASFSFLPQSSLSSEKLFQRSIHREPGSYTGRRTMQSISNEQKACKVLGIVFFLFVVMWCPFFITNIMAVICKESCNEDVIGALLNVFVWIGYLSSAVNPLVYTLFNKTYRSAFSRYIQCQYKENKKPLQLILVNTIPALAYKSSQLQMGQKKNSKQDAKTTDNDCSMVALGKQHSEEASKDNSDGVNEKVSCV
T2 sequence (P31645 whole entry): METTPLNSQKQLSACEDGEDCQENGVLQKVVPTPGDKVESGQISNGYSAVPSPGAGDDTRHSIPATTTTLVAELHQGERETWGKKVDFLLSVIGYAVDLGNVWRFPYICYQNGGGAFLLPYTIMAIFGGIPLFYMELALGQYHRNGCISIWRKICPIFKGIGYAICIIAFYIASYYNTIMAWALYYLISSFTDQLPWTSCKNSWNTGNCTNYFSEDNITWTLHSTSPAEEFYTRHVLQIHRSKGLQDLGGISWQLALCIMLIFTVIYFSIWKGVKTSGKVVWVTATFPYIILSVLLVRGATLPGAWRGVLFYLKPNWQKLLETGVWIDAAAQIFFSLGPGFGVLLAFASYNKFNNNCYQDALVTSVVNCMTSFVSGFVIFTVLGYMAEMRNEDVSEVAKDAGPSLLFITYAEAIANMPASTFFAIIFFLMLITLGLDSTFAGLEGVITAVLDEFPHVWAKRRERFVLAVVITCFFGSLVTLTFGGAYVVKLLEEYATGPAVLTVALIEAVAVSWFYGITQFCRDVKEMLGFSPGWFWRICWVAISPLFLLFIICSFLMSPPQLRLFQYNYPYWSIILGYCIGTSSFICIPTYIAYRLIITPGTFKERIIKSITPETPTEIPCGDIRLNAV

SMILES | inhibition at 0.1 µM [1, 5] | inhibition at 0.1 µM [2] | inhibition at 0.1 µM [3] | inhibition at 0.1 µM [4, 5] | inhibition at 0.2 µM [3] | other results
CC1C(=O)Nc2cccc3c2N1[C@H]1CCN(CCCOc2ccc(F)cc2)C[C@@H]31 (stereo partly drawn) [compound 51, (6bR,10aS)-8-(3-(4-Fluorophenoxy)propyl)-1-methyl-6b,7,8,9,10,10a-hexahydro-1H-pyrido[3′,4′:4,5]-pyrrolo[1,2,3-de]quinoxalin-2(3H)-one] | 49% | 88% | < 0% | 26% | – | –
O=C1CN2c3c(cccc3[C@@H]3CN(CCCOc4ccc(O)cc4)CC[C@@H]32)N1 [compound 33, (6bR,10aS)-8-(3-(4-Hydroxyphenoxy)propyl)-6b,7,8,9,10,10a-hexahydro-1H-pyrido[3′,4′:4,5]pyrrolo-[1,2,3-de]quinoxalin-2(3H)-one] | 41% | 77% | 11% | < 0% | – | –
O=C1CN2c3c(cccc3[C@@H]3CN(CCCO)CC[C@@H]32)N1 [compound 22, (6bR,10aS)-8-(3-Hydroxypropyl)-6b,7,8,9,10,10a-hexahydro-1H-pyrido[3′,4′:4,5]pyrrolo[1,2,3-de]quinoxalin-2(3H)-one] | < 0% | 8% | – | < 0% | < 0% | –
O=C1CN2c3c(cccc3[C@@H]3CN(CCCCOc4ccc(F)cc4)CC[C@@H]32)N1 [compound 50, (6bR,10aS)-8-(4-(4-Fluorophenoxy)butyl)-6b,7,8,9,10,10a-hexahydro-1H-pyrido[3′,4′:4,5]pyrrolo[1,2,3-de]quinoxalin-2(3H)-one] | 27% | 37% | < 0% | 5.4% | – | –
O=C1CN2c3c(cccc3[C@@H]3CN(CCCOc4ccc(F)cc4)CC[C@H]32)N1 (racemic) [compound 20, (±)-(trans)-8-(3-(4-Fluorophenoxy)propyl)-6b,7,8,9,10,10a-hexahydro-1H-pyrido[3′,4′:4,5]pyrrolo[1,2,3-de]quinoxalin-2(3H)-one] | – | – | < 0% | – | – | D1(Ki or (% Inhibition)): % inhibition [4]: 5.6 (79%); inhibition at 0.1 µM [4]: 79%
O=C1CN2c3c(cccc3[C@H]3CN(CCCOc4ccc(F)cc4)CC[C@H]32)N1 [compound 54, (6bS,10aR)-8-(3-(4-Fluorophenoxy)propyl)-6b,7,8,9,10,10a-hexahydro-1H-pyrido[3′,4′:4,5]pyrrolo[1,2,3-de]quinoxalin-2(3H)-one] | – | – | < 0% | – | – | D1(Ki or (% Inhibition)): % inhibition [4]: 75 (50%); inhibition at 0.1 µM [4]: 50%
CN(CCCN1CC[C@H]2[C@@H](C1)c1cccc3c1N2CC(=O)N3)c1ccc(F)cc1 [compound 48, (6bR,10aS)-8-(3-((4-Fluorophenyl)(methyl)amino)propyl)-6b,7,8,9,10,10a-hexahydro-1H-pyrido[3′,4′:4,5]pyrrolo[1,2,3-de]quinoxalin-2(3H)-one] | 14% | 76% | – | 21% | 53% | –
COc1ccc(OCCCN2CC[C@H]3[C@@H](C2)c2cccc4c2N3CC(=O)N4)cc1 [compound 34, (6bR,10aS)-8-(3-(4-Methoxyphenoxy)propyl)-6b,7,8,9,10,10a-hexahydro-1H-pyrido[3′,4′:4,5]pyrrolo-[1,2,3-de]quinoxalin-2(3H)-one] | – | < 0% | 10% | < 0% | – | –
O=C1CN2c3c(cccc3[C@@H]3CN(CCCOc4ccc(OCc5ccccc5)cc4)CC[C@@H]32)N1 [compound 35, (6bR,10aS)-8-(3-(4-(Benzyloxy)phenoxy)propyl)-6b,7,8,9,10,10a-hexahydro-1H-pyrido[3′,4′:4,5]-pyrrolo[1,2,3-de]quinoxalin-2(3H)-one] | 23% | 76% | 68% | 4.6% | – | –
O=C1CN2c3c(cccc3[C@@H]3CN(CCCc4noc5cc(F)ccc45)CC[C@@H]32)N1 [compound 26, (6bR,10aS)-8-(3-(6-Fluorobenzo[d]isoxazol-3-yl)propyl)-6b,7,8,9,10,10a-hexahydro-1H-pyrido[3′,4′:4,5]-pyrrolo[1,2,3-de]quinoxalin-2(3H)-one] | – | – | – | – | – | Ki [1]: 84 nM; fold weaker affinity to dopamine D2 receptors [1]: over 5 fold; Ki [2]: 3.1 nM; Ki [4]: 13 nM
O=C1CN2c3c(cccc3[C@@H]3CN(CCCOc4ccccc4)CC[C@@H]32)N1 [compound 23, (6bR,10aS)-8-(3-Phenoxypropyl)-6b,7,8,9,10,10a-hexahydro-1H-pyrido[3′,4′:4,5]-pyrrolo[1,2,3-de]quinoxalin-2(3H)-one] | – | 84% | – | – | 8% | inhibition at 0.1 µM [1]: 34%; Ki [2]: 2.8 nM; inhibition at 0.1 µM [4]: 24%
O=C1CN2c3c(cccc3[C@@H]3CN(CCCOc4ccc(F)c(F)c4)CC[C@@H]32)N1 [compound 39, (6bR,10aS)-8-(3-(3,4-Difluorophenoxy)propyl)-6b,7,8,9,10,10a-hexahydro-1H-pyrido[3′,4′:4,5]pyrrolo-[1,2,3-de]quinoxalin-2(3H)-one] | – | 71% | – | – | 15% | D2(Ki or (% Inhibition)): % inhibition [1]: 1620 (7%); Ki [1]: 1620 nM; inhibition at 0.1 µM [1]: 7%; 5-HT2A (Ki or (% Inhibition)): % inhibition [2]: 16.1 (71%); Ki [2]: 16.1 nM; fold reduction of affinity to 5-HT2A receptors [2]: approximately 6 fold; Ki [3]: 508 nM; SERT (Ki or (% Inhibition)): % inhibition [3]: 508 (15%); D1(Ki or (% Inhibition)): % inhibition [4]: 232 (15%); Ki [4]: 232 nM; inhibition at 0.1 µM [4]: 15%
O=C1CN2c3c(cccc3[C@@H]3CN(CCCS(=O)(=O)c4ccc(F)cc4)CC[C@@H]32)N1 [compound 46, (6bR,10aS)-8-(3-((4-Fluorophenyl)sulfonyl)propyl)-6b,7,8,9,10,10a-hexahydro-1H-pyrido[3′,4′:4,5]-pyrrolo-[1,2,3-de]quinoxalin-2(3H)-one] | < 0% | 33% | – | < 0% | < 0% | –
O=C1CN2c3c(cccc3[C@@H]3CN(CCOc4ccc(F)cc4)CC[C@@H]32)N1 [compound 49, (6bR,10aS)-8-(2-(4-Fluorophenoxy)ethyl)-6b,7,8,9,10,10a-hexahydro-1H-pyrido[3′,4′:4,5]pyrrolo[1,2,3-de]quinoxalin-2(3H)-one] | 24% | 48% | < 0% | 10% | – | –
CCCCN1CC[C@H]2[C@@H](C1)c1cccc3c1N2CC(=O)N3 [compound 21, (6bR,10aS)-8-Butyl-6b,7,8,9,10,10a-hexahydro-1H-pyrido[3′,4′:4,5]pyrrolo[1,2,3-de]quinoxalin-2(3H)-one] | 15% | < 0% | – | < 0% | < 0% | –
O=C1CN2c3c(cccc3[C@@H]3CN(CCCOc4ccccc4F)CC[C@@H]32)N1 [compound 36, (6bR,10aS)-8-(3-(2-Fluorophenoxy)propyl)-6b,7,8,9,10,10a-hexahydro-1H-pyrido[3′,4′:4,5]pyrrolo[1,2,3-de]quinoxalin-2(3H)-one] | 28% | 87% | 5.1% | 18% | – | –
O=C1CN2c3c(cccc3[C@@H]3CN(CCCc4n[nH]c5cc(F)ccc45)CC[C@@H]32)N1 [compound 24, (6bR,10aS)-8-(3-(6-Fluoro-1H-indazol-3-yl)propyl)-6b,7,8,9,10,10a-hexahydro-1H-pyrido[3′,4′:4,5]pyrrolo-[1,2,3-de]quinoxalin-2(3H)-one] | – | – | – | – | – | Ki [1]: 15 nM; Ki [2]: 2.6 nM; Ki [3]: 540 nM; Ki [4]: 5.2 nM
O=C1CCN2c3c(cccc3[C@@H]3CN(CCCOc4ccc(F)cc4)CC[C@@H]32)N1 [compound 53, (8aS,12aR)-11-(3-(4-Fluorophenoxy)propyl)-6,7,8a,9,10,11,12,12a-octahydro-[1,4]diazepino[3,2,1-hi]pyrido[4,3-b]indol-5(4H)-one] | 24% | 93% | – | 14% | 29% | –
O=C1CN2c3c(cccc3[C@@H]3CN(CCCOc4cccc(F)c4)CC[C@@H]32)N1 [compound 37, (6bR,10aS)-8-(3-(3-Fluorophenoxy)propyl)-6b,7,8,9,10,10a-hexahydro-1H-pyrido[3′,4′:4,5]pyrrolo[1,2,3-de]quinoxalin-2(3H)-one] | 14% | 78% | 7.7% | 32% | – | –
O=C1CN2c3c(cccc3[C@@H]3CN(CCCOc4ccc(Br)cc4)CC[C@@H]32)N1 [compound 30, (6bR,10aS)-8-(3-(4-Bromophenoxy)propyl)-6b,7,8,9,10,10a-hexahydro-1H-pyrido[3′,4′:4,5]pyrrolo-[1,2,3-de]quinoxalin-2(3H)-one] | 8.4% | 70% | 44% | < 0% | – | –
O=C1CN2c3c(cccc3[C@@H]3CN(CCCOc4ccc5c(c4)OCO5)CC[C@@H]32)N1 [compound 28, (6bR,10aS)-8-(3-(Benzo[d][1,3]dioxol-5-yloxy)propyl)-6b,7,8,9,10,10a-hexahydro-1H-pyrido[3′,4′:4,5]-pyrrolo[1,2,3-de]quinoxalin-2(3H)-one] | – | < 0% | – | < 0% | – | –
NC(=O)c1cc(F)ccc1OCCCN1CC[C@H]2[C@@H](C1)c1cccc3c1N2CC(=O)N3 [compound 38, 5-Fluoro-2-(3-((6bR,10aS)-2-oxo-2,3,6b,9,10,10a-hexahydro-1H-pyrido[3′,4′:4,5]pyrrolo[1,2,3-de]quinoxalin-8(7H)-yl)propoxy)benzamide] | < 0% | 14% | 9.6% | < 0% | – | –
